How the values were obtained:
[1] = test system: several fungi; details: PRN spraying in field tests; U.S. Pat. No. 5,698,425; cited from earlier work
[2] = test system: plant genome; experiment: Southern blot for integration into the plant genome; format: in vivo, tomato; details: BglII-cleaved vs uncleaved DNA
Protocol: Molecular analysis—Southern analysis was carried out according to standard procedures (e.g as set forth in Sambrook, J. & Russel, D. W. Molecular Cloning, Third Edition. Cold Spring Harbor Laboratory Press, Cold Spring Harbor (2001)). Probes for Southern analysis were labeled by the PCR-DIG procedure (Roche Molecular Biochemicals, Basel, Switzerland). DIG labeled probes (TYLCV-CP—SEQ ID NO: 40) which hybridize with nucleotides 530-908 of the sequence identified by GenBank Accession No. X15656 were prepared according to the manufacturers protocol. Northern and Western analyses were carried out according to standard procedures. Probes for Northern analysis were labeled as described for the Southern blot analysis. Detection of GUS and GFP activities were performed according to published procedures [Jefferson, R. A., EMBO J. 6, 3901-3907 (1987); Blumenthal, A., Plant Science 142, 93-99 (1999)]. Chemiluminescent probes for Western blots were prepared with the SuperSignal West Pico kit (Pierce, Rockford, Ill., USA), using polyclonal antibodies against TYLCV-CP (Bioreba, Reinach, Switzerland) All probes were prepared according to the respective manufacturer's protocol. […]
Southern analysis was done without shearing, and with or without cleaving DNA with BglII. Two major bands were detected in samples from IL-60-BS, as well as TYLCV-infected plants (lanes 3-6, and lane 2 respectively of FIG. 3a). […]

[3] = test system: tomato plants; experiment: Vector replication, spread, reporter expression and symptoms in tomato plants (PCR, GUS staining); format: in vivo
Protocol: Propagation of the virus-plasmid vectors and their administration to plants—E. coli cells were transformed with IL-60 (SEQ ID NO: 2), IL-60-BS (SEQ ID NO: 1), IL-60-BS-GUS and IL-60-BS-GFP and propagated under ampicillin selection; the construct was extracted using standard procedures. IL-60-BS was administered directly into plants, without mediation by Agrobacterium. The stem, or leaf petiole, of the recipient plant was punctured by a hypodermic needle. A capillary tube was inserted into the resultant hole, and approximately 2 microgram of DNA (in 100 μl of 5 mM Tris-HCl; pH 8.5) were pipetted into the capillary tube until fully soaked by the plant. For large-scale applications, samples were delivered into plants by the BIM-LAB instrument (Bio-OZ biotechnologies, Yad Mordechai, Israel).
PCR analysis—PCR analysis was carried out according to standard procedures. DNA for PCR analysis was extracted as described in Bernatzky R. and Tanksley, S. D. [Theor. Appl. Genet. 72:314-321 (1986)], from leaves positioned at least 3 leaves above the point of administration. Tomato plants carry Geminivirus sequences in their genome [Ashby, M. K. et al., Plant Mol. Biol. 35, 313-321 (1997)]. Thus, it was also necessary to ascertain that PCR products were obtained from vector templates and not from native viral infection or plant sequences. Therefore, PCR tests were carried out with primers distinguishing IL-60 from TYLCV, or spanning the junction between IL-60 and the plasmid. • (i) primers distinguishing IL-60 from TYLCV; 977 (forward): gaa ggc tga act tcg aca g (SEQ ID NO: 16), 966 (reverse): att ggg ctg ttt cca tag ggc (SEQ ID NO: 17) • (ii) primers which amplify the junction between Bluescript and IL-60; 939 (forward) aga gac acc gat tca ttt caa c (SEQ ID NO: 18); 940 (reverse) gcg gat aac aat ttc aca cag (SEQ ID NO: 19).
In order to detect the presence of plasmids carrying reporter genes, PCR was performed with primers amplifying the reporter gene inserted into IL-60-BS. • iii) GUS specific primers: 408 (forward) gaa caa cga act gaa ctg gca gac (SEQ ID NO: 25); 167 (reverse) cag cgt aag ggt aat gcg ag (SEQ ID NO: 26). • iv) GFP specific primers: 895 (forward) ggc cga att cag taa agg aga ag (SEQ ID NO: 27); 345 (reverse) tgt gtg gac agg taa tgg (SEQ ID NO: 28).
TYLCV, IL-60, IL-60-BS and reporter gene derivative plasmids were either agroinoculated or injected into tomato plants and their replication and spread was monitored with symptom observation, PCR analysis and Southern blot. The expression of viral and reporter genes was assessed using PCR, Northern and Western analysis, GUS staining and GFP fluorescence as described above in methods and materials.

[4] = test system: Bemisia tabaci; experiment: Transfer of IL-60-BS by Bemisia tabaci; format: in vivo; details: insects fed on IL-60-BS-carrying tomato plants, transferred to healthy tomato plants; PCR
Source text: Assay for Transfer of IL-60-BS by Bemisia tabaci—Bemisia tabaci were allowed to feed on IL-60-BS-carrying tomato plants (15 insects per plant). Insects were then fed on sucrose and transferred to healthy tomato plants. DNA was extracted from both types of plants and used as a template for PCR using primers which amplify a sequence specific to IL-60 (e.g. SEQ ID NO: 16 and NO: 17) or other relevant primer pairs.
Wild TYLCV is transmitted by the whitefly, Bemisia tabaci. To test whether the viral vector is also transmitted through a viral natural transmitter, plants carrying the IL-60-BS vector were fed to B. tabaci.

O=[N+]([O-])c1c(Cl)cccc1-c1c[nH]cc1Cl [PRN, Pyrrolnitrin]
reduction in infectivity of several fungi [1]: up to 8 fold

IL-60-BS: IL-60 with Bluescript II-KS+ plasmid inserted, interrupting rep and C4 (SEQ ID NO: 1)
integration into the plant genome [2]: had not been integrated into the plant's genome
efficiency of administration into plants ([3]; direct injection): over 90%
symptoms in injected plants ([3]; more than 64 injected tomato plants): did not present any symptom
persistence of vector after injection ([3]; tomato plants, PCR, duration of the plants life-span): 12 months
vector found / replication indicated by PCR, time post injection ([3]; tomato plants, leaves remote from the point of injection): 3 days
transmission of vector by insects to non-carrying plants [4]: did not carry the IL-60-BS vector

IL-60: TYLCV-derived vector (SEQ ID NO: 2) with 60-nt coat protein deletion and frame shift
infection after agroinoculation ([3]; tomato plants agroinoculated with the multimeric form, kept until fruit set): systemic, but symptomless infection

Reference: patent publication US9315818B2, “Plant expression constructs and methods of utilizing same” (priority 2006, dated 2016)
